# Reference: patent US5340807A, “Tricyclic compounds and intermediates thereof” (priority 1991, dated 1994)
# What was measured:
# [1] = test system: acyl coenzyme A: cholesterol acyltransferase (ACAT); assay: Test for ACAT inhibitory activity (microsome fraction prepared from rabbit liver); type: biochemical; settings: 10^-6 M, 37° C., 10 minutes
# Procedure: Test for ACAT inhibitory activity The test for ACAT inhibitory activity was performed by a modified method of the method of Brecher et al. Biochim. Biophys. […] The radioactivity of the cholesterol ester spot was determined by a liquid scintillation counter. The radio-activity for each test compound was calculated by the difference between the radioactivity with the microsome fraction and the radioactivity without the microsome fraction. The radioactivity of control was determined in a similar manner without any test compound.
# male ddy strain mice = assay: Test for acute toxicity (minimum lethal dose, oral); type: in vivo; settings: mortality observed seven days after administration
# Procedure: Groups of 3 male ddy strain mice weighing 20±1 g were used. The test compounds were orally administered. Seven days after administration, the mortality was observed and the minimum lethal dose (MLD) was determined.
# serum cholesterol level = assay: Inhibition effect on serum cholesterol level in hamster with dietary hyperlipemia; type: in vivo; settings: Golden hamster, 2% cholesterol feed for 3 days; 30 mg/kg orally once a day
# Procedure: Inhibition effect on serum cholesterol level in hamster with dietary hyperlipemia
# Golden hamster (SLC, male, age of 6 weeks) was made free access to feed containing 2% cholesterol for 3 days. Each test compound was suspended in olive oil and orally administered once a day in a dose of 30 mg/kg during the feeding. (A: Test Group administered with the test compound, B: Control Group administered with olive oil only). In Group C, feed free from cholesterol was fed for 3 days. On the fourth day, blood sample was collected from the descending aorta under pentobarbital anesthesia and cholesterol level in serum was determined. The total cholesterol level in serum of each group was determined and the inhibition rate for the test compound was calculated according to the following equation. [formula]
Inhibiting rate(%) of ACAT [1] [%],SMILES,"Acute Toxicity (MLD), minimum lethal dose (male ddy strain mice) [mg/kg]",Inhibition Rate (%) of total cholesterol level in serum (serum cholesterol level) [%]
100,"CC(C)c1cccc(C(C)C)c1NC(=O)C1c2ccccc2COc2c1cc(Br)cc2[N+](=O)[O-] (stereo not drawn) [Compound 53, 2-Bromo-6,11-dihydro-N-(2,6-diisopropylphenyl)-4-nitrodibenz[b,e]oxepin-11-carboxamide]",–,–
99,"Cc1ccc2c(c1)C(C(=O)Nc1c(C(C)C)cccc1C(C)C)c1ccccc1CC2 (stereo not drawn) [Compound 68, 10,11-Dihydro-N-(2,6-diisopropylphenyl)-3-methyl-5H-dibenz[a,d]cyclohepten-5-carboxamide]",–,–
100,"Cc1cc(C)c2c(c1)OCc1ccccc1C2C(=O)Nc1c(C(C)C)cccc1C(C)C (stereo not drawn) [Compound 62, 6,11-Dihydro-N-(2,6-diisopropylphenyl)-1,3-dimethyldibenz-[b,e]oxepin-11-carboxamide]",–,–
97,"Cc1ccc(C)c2c1OCc1ccccc1C2C(=O)Nc1c(C(C)C)cccc1C(C)C (stereo not drawn) [Compound 49, 6,11-Dihydro-N-(2,6-diisopropylphenyl)-1,4-dimethyldibenz[b,e]oxepin-11-carboxamide]",–,–
95,"CSc1cc(C(C)C)c(NC(=O)C2c3ccccc3COc3ccc(Br)cc32)c(C(C)C)c1 (stereo not drawn) [Compound 44, 2-Bromo-6,11-dihydro-N-(2,6-diisopropyl-4-methylthiophenyl)dibenz[b,e]oxepin-11-carboxamide]",–,–
91,CC(C)c1cccc(C(C)C)c1NC(=O)C1c2cc(Br)ccc2OCc2ncccc21 (stereo not drawn) [Compound 42],–,–
100,"Cc1cc(Cl)c2c(c1C)C(C(=O)Nc1c(C(C)C)cccc1C(C)C)c1ccccc1CO2 (stereo not drawn) [Compound 59, 4-Chloro-6,11-dihydro-N-(2,6-diisopropylphenyl)-1,2-dimethyldibenz[b,e]oxepin-11-carboxamide]",–,–
96,"Cc1cc2c(cc1C)C(C(=O)Nc1c(C(C)C)cccc1C(C)C)c1ccccc1CO2 (stereo not drawn) [Compound 48, 6,11-Dihydro-N-(2,6-diisopropylphenyl)-2,3-dimethyldibenz[b,e]oxepin-11-carboxamide]",–,–
99,"COC(=O)c1cc(C)cc2c1OCc1ccccc1C2C(=O)Nc1c(C(C)C)cccc1C(C)C (stereo not drawn) [Compound 51, Methyl 6,11-dihydro-11-(2,6-diisopropylphenyl)aminocarbonyl-2-methyldibenz[b,e]oxepin-4-carboxylate]",–,–
99,"Cc1cc2c(c(C)c1Br)C(C(=O)Nc1c(C(C)C)cccc1C(C)C)c1ccccc1CO2 (stereo not drawn) [Compound 56, 2-Bromo-6,11-dihydro-N-(2,6-diisopropylphenyl)-1,3-dimethyldibenz[b,e]oxepin-11-carboxamide]",–,–
98,"CC(C)c1cccc(C(C)C)c1NC(=O)C1c2ccccc2CCc2cc(Br)ccc21 (stereo not drawn) [Compound 69, 2-Bromo-10,11-dihydro-N-(2,6-diisopropylphenyl) -5H-dibenz[a,d]cyclohepten-5-carboxamide]",–,–
78,"CSc1cc(C(C)C)c(NC(=O)C2c3ccccc3COc3ccc(C)cc32)c(C(C)C)c1 (stereo not drawn) [Compound 30, 6,11-Dihydro-N-(2,6-diisopropyl-4-methylthiophenyl)-2-methyldibenz[b,e]oxepin-11-carboxamide]",–,–
93,"CCc1cccc(CC)c1NC(=O)C1c2ccccc2COc2c(C)ccc(C)c21 (stereo not drawn) [Compound 50, 6,11-Dihydro-N-(2,6-diethylphenyl) -1,4-dimethyldibenz[b,e]-oxepin-11-carboxamide]",–,–
91,"O=C(Nc1c(Cl)cccc1Cl)C1c2ccccc2COc2ccc(Br)cc21 (stereo not drawn) [Compound 39, 2-Bromo-N-(2,6-dichlorophenyl)-6,11-dihydrodibenz[b,e]oxepin-11-carboxamide]",–,–

# Continued, compound first:
SMILES,Inhibiting rate(%) of ACAT [1] [%],"Acute Toxicity (MLD), minimum lethal dose (male ddy strain mice) [mg/kg]",Inhibition Rate (%) of total cholesterol level in serum (serum cholesterol level) [%]
"CC(C)c1cccc(C(C)C)c1NC(=O)C1c2ccccc2COc2ccc(Br)cc21 (single isomer, unassigned) [Compound 61, (+) -2-Bromo-6,11-dihydro-N-(2,6-diisopropylphenyi)dibenz[b,e]oxepin-11-carboxamide]",92,–,–
"CC(C)c1cccc(C(C)C)c1NC(=O)C1c2ccccc2COc2ccc(C#N)cc21 (stereo not drawn) [Compound 23, 2-Cyano-6,11-dihydro-N-(2,6-diisopropylphenyl)dibenz[b,e]-oxepin-11-carboxamide]",69,> 300,–
"Cc1cc(Br)c2c(c1)C(C(=O)Nc1c(C(C)C)cccc1C(C)C)c1ccccc1CO2 (stereo not drawn) [Compound 21, 4-Bromo-6,11-dihydro-N-(2,6-diisopropylphenyl) -2-methyldibenz[b,e]oxepin-11-carboxamide]",–,–,67
"COC(=O)c1ccc2c(c1)C(C(=O)Nc1c(C(C)C)cccc1C(C)C)c1ccccc1CO2 (stereo not drawn) [Compound 24, 6,11-Dihydro-N-(2,6-diisopropylphenyl)-2-methoxycarbonyl-dibenz[b,e]oxepin-11-carboxamide]",90,> 300,–
"CC(C)c1cccc(C(C)C)c1NC(=O)C1c2ccccc2COc2ccc(F)cc21 (stereo not drawn) [Compound 16, 2-Fluoro-6,11-dihydro-N-(2,6-diisopropylphenyl)dibenz[b,e]-oxepin-11-carboxamide]",81,> 300,–
"Cc1ccc(Cl)c2c1C(C(=O)Nc1c(C(C)C)cccc1C(C)C)c1ccccc1CO2 (stereo not drawn) [Compound 64, 4-Chloro-6,11-dihydro-N-(2,6-diisopropylphenyl) -1-methyldibenz[b,e]oxepin-11-carboxamide]",100,–,–
"CC(C)c1cccc(C(C)C)c1NC(=O)C1c2ccccc2COc2c1cc(Br)cc2N(C)C.Cl (stereo not drawn) [Compound 55, 2-Bromo-6,11-dihydro-N-(2,6-diisopropylphenyl)-4-dimethylaminodibenz[b,e]oxepin-11-carboxamide hydrochloride]",100,–,–
"O=C(Nc1c(Cl)cccc1Cl)C1c2ccccc2COc2cc(Br)ccc21 (stereo not drawn) [Compound 28, 3-Bromo-N-(2,6-dichlorophenyl)-6,11-dihydrodibenz[b,e]oxepin-11-carboxamide]",52,> 300,–
"CC(C)c1cccc(C(C)C)c1NC(=O)C1c2ccccc2COc2ccc(Br)cc21 (stereo not drawn) [Compound 18, 2-Bromo-6,11-dihydro-N-(2,6-diisopropylphenyl)dibenz[b,e]-oxepin-11-carboxamide]",100,> 300,114
"Cc1ccc2c(c1)C(C(=O)Nc1ccccc1C(C)C)c1ccccc1CO2 (stereo not drawn) [Compound 5, 6,11-Dihydro-N-(2-isopropylphenyl)-2-methyldibenz[b,e]-oxepin-11-carboxamide]",56,> 300,–
"Cc1ccc2c(c1)C(C(=O)Nc1c(C)cccc1C)c1ccccc1CO2 (stereo not drawn) [Compound 2, 6,11-Dihydro-2-methyl-N-(2,6-dimethylphenyl) dibenz[b,e]-oxepin-11-carboxamide]",66,–,–
"CC(C)c1cccc(C(C)C)c1NC(=O)C1c2ccccc2COc2cc(Br)ccc21 (stereo not drawn) [Compound 29, 3-Bromo-6,11-dihydro-N-(2,6-diisopropylphenyl)dibenz[b,e]-oxepin-11-carboxamide]",86,> 300,–
"CC(C)c1cccc(C(C)C)c1NC(=O)C1c2ccccc2COc2ccc(C(F)(F)F)cc21 (stereo not drawn) [Compound 20, 6,11-Dihydro-N-(2,6-diisopropylphenyl) -2-trifluoromethyldibenz[b,e]oxepin-11-carboxamide]",84,> 300,63
"CCc1cccc(CC)c1NC(=O)C1c2ccccc2COc2ccc(Br)cc21 (stereo not drawn) [Compound 27, 2-Bromo-N-(2,6-diethylphenyl)-6,11-dihydrodibenz[b,e]oxepin-11-carboxamide]",80,> 300,–
"CC(C)c1cccc(C(C)C)c1NC(=O)C1c2ccccc2COc2ccc(Br)cc21 (single isomer, unassigned) [Compound 60, (-) -2-Bromo-6,11-dihydro-N-(2,6-diisopropylphenyl) dibenz[b,e]oxepin-11-carboxamide]",99,–,–
"CCc1cccc(CC)c1NC(=O)C1c2ccccc2COc2cc(C)c(Br)c(C)c21 (stereo not drawn) [Compound 57, 2-Bromo-N-(2,6-diethylphenyl)-6,11-dihydro-1,3-dimethyldibenz[b,e]oxepin-11-carboxamide]",98,–,–
"CCc1cccc(CC)c1NC(=O)C1c2ccccc2COc2ccc(C)cc21 (stereo not drawn) [Compound 3, N-(2,6-Diethylphenyl) -6,11-dihydro-2-methyldibenz[b,e]-oxepin-11-carboxamide]",77,> 300,–
"CC(C)c1cccc(C(C)C)c1NC(=O)C1c2ccccc2COc2ccc(Cl)cc21 (stereo not drawn) [Compound 17, 2-Chloro-6,11-dihydro-N-(2,6-diisopropylphenyl)dibenz[b,e]-oxepin-11-carboxamide]",94,> 300,–
